According to patent US20120232062A1, “AZAINDAZOLES TO TREAT FLAVIVIRIDAE VIRUS INFECTION” (EIGER BIOPHARMACEUTICALS, INC., priority 2009, published 2012):
Read-outs that look alike come from different tables or passages of the source.

Test system: HCV genotype 1b
Experiment: HCV 1b replicon luciferase assay
Type: cell-based
Settings: Table 1, Huh7 HCV 1b replicon, luciferase reporter, 48 hours, read-out: 1b EC50
From the text: A suitable 1b HCV RNA replicon assay uses the Huh7 cell line which contains an HCV 1b RNA replicon with a stable luciferase (LUC) reporter. This construct contains modifications that make the cell line more robust and provides stable LUC expression for antiviral screening. The LUC reporter is used as an indirect measure of HCV replication. The activity of the LUC reporter is directly proportional to HCV RNA levels and positive control antiviral compounds behave comparably using LUC endpoints. […]
Fresh growth medium is prepared just before use. The container used in the procedure is a 10 cm diameter culture dish. HCV replicon reporter cell lines are used. Prepare complete medium: add FBS and appropriate additives as described in “Culture Media”, below. Pre-warm the medium in a 37° C. thermostat water bath. Remove the dish from a 37° C. CO2 incubator. Check the cell name and complete medium and passage number marked on the dish. Aspirate the medium carefully and add 1 ml PBS to rinse the cells. Remove and discard the solution and add 1 ml of 0.25% Trypsin/0.02% EDTA. Rinse the cells with the added Trypsin/EDTA to ensure all the cells have been rinsed. Remove the Trypsin/EDTA with a vacuum pump and incubate at 37° C. for 3-5 minutes. Examine the cell morphology under an inverted microscope to confirm that a single cell suspension is clearly visible. Add 3 ml of complete medium to the dish and suspend the cell by gentle pipetting. Count the cell numbers with a hematometer. Adjust cell density to 100 k/ml by adding appropriate volume of the complete medium. Add 100 μl of cell suspension to each well of a 96-well white plate; the cell density is thus 10 k per well. Mark the plate with cell name, passage number, seeding density, date and the name of the operator. Place the 96-well assay plate in 37° C. 5% CO2 incubator for 24 hours.
Compounds are prepared or provided at 25 mM in 100% DMSO. This is the compound stock solution. The dilution procedure should be performed in a cell culture hood. Dispense the stock solution into the second column of a 96-well plate. Prepare 9-step (10 concentrations total), 5-fold serial dilutions by transferring 10 μA of the compound into the next well containing 40 μA of DMSO. Repeat for all compounds. Aspirate 2 μl of the above compound solution from each well and add into 198 μl complete media using a 12-channel pipetter to obtain the 10-fold concentration compound solution with 1% DMSO, mix well.
Remove the 96-well assay plate from the 37° C./5% CO2 incubator, examine the cell morphology under an inverted microscope. In a cell culture hood, add 10 μl of the 10× concentration compounds solution into each well on the 96-well assay plate. All compound's dose responses are done in duplicate. The starting final concentration of the compounds is 25 μM, and DMSO final concentration 0.1%. Mark the plate with compound code(s) and concentrations. Place the 96-well assay plate into CO2 incubator for 48 hours. Add 30 μl of Stead-Glo Luciferase System (Promega) reagent to each well and mix by gentle shaking on a plate shaker for 5 minutes to allow throughout cell lysis. Measure the luminescence with Envision (Perkin Elmer) with an integration time of 2 seconds. Record and analyze the data.
The cell culture media is DMEM complete: DMEM (Life Technologies #41965-039) supplemented with 10% FCS, 2 mM Glutamin (Life Technologies #25030-024), Penicillin (100 IU/ml)/Streptomycin (100 μg/ml) (Life Technologies #15140-114) and 1× nonessential amino acids (Life Technologies #11140-035). G418 (“Geneticin”, Life Technologies): concentrations are given as weight per volume of the original substance. Specific activity of a typical batch is ca. 700 μg/mg as stated by the manufacturer. […] Therefore each new batch of G418 should be tested individually e.g. in an electroporation experiment using different selection conditions (0.2-1 mg/ml).

SMILES | EC50 (Hepatitis C virus, Huh-7, 48 h) | EC50
CCn1nc(C(=O)NC2CCNCC2)c2ccc(N3CCCCCC3)nc21 [compound 856] | 3.7 µM | 
CC(C)n1nc(C(=O)NC2CCNCC2)c2ccc(N3CCCCCC3)nc21 [compound 857] | 3.1 µM | 
CCCn1nc(C(=O)NC2CCNCC2)c2ccc(N3CCCCCC3)nc21 [compound 858] | 3.3 µM | 
CCC(CC)n1nc(C(=O)NC2CCNCC2)c2ccc(N3CCCCCC3)nc21 [compound 859] | 2.8 µM | 
CCN(CC)c1ccc2c(C(=O)NC3CCNCC3)nn(C)c2n1 [compound 860] | 2.9 µM | 
Cn1nc(C(=O)NC2CCNCC2)c2ccc(N3CCCCC3)nc21 [compound 861] | 7.3 µM | 
Cn1nc(C(=O)NC2CCNCC2)c2ccc(NC3CCCCC3)nc21 [compound 862] | 2.6 µM | 
Cn1nc(C(=O)NC2CCNCC2)c2ccc(NCC3CCCCC3)nc21 [compound 863] | 1.3 µM | 
Cn1nc(C(=O)NC2CCNCC2)c2ccc(NC3CCCCCC3)nc21 [compound 866] | 1.1 µM | 
CN(CC1CCCCC1)c1ccc2c(C(=O)NC3CCNCC3)nn(C)c2n1 [compound 867] | 0.934 µM | 
Cn1nc(C(=O)NC2CCNCC2)c2ccc(N3CCC(Cc4ccccc4)CC3)nc21 [compound 868] | 2.4 µM | 
Cn1nc(C(=O)NCC2CCCNC2)c2ccc(N3CCCCCC3)nc21 (centres unmarked) [compound 872] | 8.1 µM | 
Cn1nc(C(=O)NC2CCNCC2)c2ccc(OC3CCCCCC3)nc21 [compound 873] | 4.7 µM | 
CC1CCC(Oc2ccc3c(C(=O)NC4CCNCC4)nn(C)c3n2)C(C(C)C)C1 (centres unmarked) [compound 874] | 1.7 µM | 
O=C(NC1CCNCC1)c1nn2c3nc(ccc13)OC/C=C\CCCCC2 [compound 876] | 7.5 µM | 
O=C(NC1CCNCC1)c1nn2c3nc(ccc13)OC/C=C/CCCCC2 [compound 877] | 3.3 µM | 
CC1CCCCC1Oc1ccc2c(C(=O)NC3CCNCC3)nn(C)c2n1 (centres unmarked) [compound 878] | 2.8 µM | 
CC1CCC(Oc2ccc3c(C(=O)NC4CCNCC4)nn(C)c3n2)CC1 (centres unmarked) [compound 879] | 3.9 µM | 
Cn1nc(C(=O)NC2CC3CCCC(C2)N3)c2ccc(N3CCCCCC3)nc21 (centres unmarked) [compound 880] |  | 8.1 µM
Cn1nc(C(=O)NC2CCNCC2)c2ccc(NC3CCCCCCC3)nc21 [compound 885] | 0.889 µM | 
Cn1nc(C(=O)NC2CCNCC2)c2ccc(N3CCCCCCC3)nc21 [compound 886] | 0.798 µM | 
CN(c1ccc2c(C(=O)NC3CCNCC3)nn(C)c2n1)C1CCCCCC1 [compound 891] | 1.1 µM | 

SMILES | EC50 (Hepatitis C virus, Huh-7, 48 h) | EC50
CN(c1ccc2c(C(=O)NC3CCNCC3)nn(C)c2n1)C1CCCCC1 [compound 892] | 1.5 µM | 
CN(c1ccc2c(C(=O)NC3CCNCC3)nn(C)c2n1)C1CCCCCCC1 [compound 893] | 1.1 µM | 
Cn1nc(CN[C@H]2CCNC2)c2ccc(N3CCCCCC3)nc21 [compound 908] | 8.7 µM | 
CC1CC(NCc2nn(C)c3nc(N4CCCCCC4)ccc23)CCN1 (centres unmarked) [compound 909] | 4 µM | 
CN1C2CCC1CC(NCc1nn(C)c3nc(N4CCCCCC4)ccc13)C2 (centres unmarked) [compound 910] | 3.9 µM | 
Cn1nc(C(=O)NC2CCNCC2)c2ccc(OC3CCCC3)nc21 [compound 912] | 6.9 µM | 
Cn1nc(C(=O)NC2CCNCC2)c2ccc(OC3CCCCC3)nc21 [compound 913] |  | 4.7 µM
CCC(CC)Oc1ccc2c(NC(=O)C3CCCNC3)nn(C)c2n1 (centres unmarked) [compound 938] | 8.2 µM | 
CCC(CC)Oc1ccc2c(NC(=O)c3ccncc3)nn(C)c2n1 [compound 939] | 4.7 µM | 
CCC(CC)Oc1ccc2c(NC(=O)c3ccccc3)nn(C)c2n1 [compound 942] | 8.6 µM | 
C[C@@H]1CCC[C@H]1Oc1ccc2c(C(=O)NC3CCNCC3)nn(C)c2n1 [compound 945] | 2.6 µM | 
CC1CCC(Oc2ccc3c(C(=O)NC4CCNCC4)nn(C)c3n2)C1 (centres unmarked) [compound 946] | 3.7 µM | 
CCC(CC)Oc1ccc2c(NC(=O)[C@H]3CC[C@H](N)CC3)nn(C)c2n1 [compound 949] | 5.7 µM | 
CCC(CC)Oc1ccc2c(NC(=O)C3CC(C)(C)NC(C)(C)C3)nn(C)c2n1 [compound 950] | 7.9 µM | 
CCC(CC)Oc1ccc2c(NC(=O)[C@H]3CC[C@@H](N)CC3)nn(C)c2n1 [compound 951] | 7.8 µM | 
CCC(CC)Oc1ccc2c(NC(=O)CC3CCCNC3)nn(C)c2n1 (centres unmarked) [compound 952] | 10 µM | 
CCC(CC)Oc1ccc2c(NC(=O)CC3CCNCC3)nn(C)c2n1 [compound 953] | 6.4 µM | 
Cn1nc(C(=O)NC2CCNCC2)c2ccc(Oc3ccccc3)nc21 [compound 955] | 3.4 µM | 
CCC(CC)Oc1ccc2c(NC(=O)c3ccc(C)s3)nn(C)c2n1 [compound 956] |  | 21 µM
CCC(CC)Oc1ccc2c(NC(=O)C3CCNCC3)nn(C)c2n1 [compound 962] | 4.4 µM | 
CCC(CC)Oc1ccc2c(NC(=O)c3ccc(C)s3)nn(C)c2n1 [compound 963] |  | 2.7 µM
Cn1nc(C(=O)NC2CCNCC2)c2ccc(OCc3ccccc3-c3ccccc3)nc21 [compound 969] | 1.3 µM | 

SMILES | EC50 (Hepatitis C virus, Huh-7, 48 h) | EC50
Cn1nc(C(=O)NC2CCN(Cc3cccc(-c4ccccc4)c3)CC2)c2ccc(OCc3cccc(-c4ccccc4)c3)nc21 [compound 970] | 8.9 µM | 
Cn1nc(C(=O)NC2CCN(Cc3ccc(-c4ccccc4)cc3)CC2)c2ccc(O)nc21 [compound 972] | 3.7 µM | 
Cn1nc(C(=O)NC2CCN(Cc3ccc(-c4ccccc4)cc3)CC2)c2ccc(OCc3ccc(-c4ccccc4)cc3)nc21 [compound 973] | 5.4 µM | 
Cn1nc(C(=O)NC2CCNCC2)c2ccc(OCc3ccc(-c4ccccc4)cc3)nc21 [compound 974] | 4.5 µM | 
Cn1nc(CNC2CCNCC2)c2ccc(N3CCCCCC3)nc21 [compound 976] | 4.7 µM | 
Cn1nc(C(=O)N[C@@H]2C[C@H]3CC[C@@H](C2)N3)c2ccc(N3CCCCCC3)nc21 [compound 979] | 4.9 µM | 
Cn1nc(C(=O)N[C@H]2C[C@H]3CC[C@@H](C2)N3)c2ccc(N3CCCCCC3)nc21 [compound 984] | 2.2 µM | 
Cn1nc(COCC2CCNCC2)c2ccc(N3CCCCCC3)nc21 [compound 985] | 7.6 µM | 
Cn1nc(COCC2CCCNC2)c2ccc(N3CCCCCC3)nc21 (centres unmarked) [compound 986] | 7.9 µM | 
O=C(NC1CCNCC1)c1nn(S(=O)(=O)C2CCCCC2)c2nc(N3CCCCCC3)ccc12 [compound 988] | 5.4 µM | 
Cn1nc(C(=O)NC2CCNCC2)c2cc(NC3CCCCC3)cnc21 [compound 991] | 9 µM | 
Cn1nc(C(=O)NC2CCNCC2)c2ccc(N3CCCC(c4ccccc4)CC3)nc21 (centres unmarked) [compound 1026] | 1.6 µM | 
Cn1nc(C(=O)NC2CCN(C(=O)C3CCCCC3)CC2)c2ccc(N3CCCCCC3)nc21 [compound 1030] | 4.8 µM | 
Cn1nc(C(=O)NC2CCN(CCCC3CCCCC3)CC2)c2ccc(N3CCCCCC3)nc21 [compound 1031] | 0.69 µM | 
Cn1nc(NC(=O)C2CCNCC2)c2ccc(N3CCCCCC3)nc21 [compound 1035] | 5.7 µM | 
Cn1nc(NC(=O)C2CCCNC2)c2ccc(N3CCCCCC3)nc21 (centres unmarked) [compound 1036] | 8.7 µM | 
Cn1nc(C(=O)NC2CCN(Cc3ccccc3Cl)CC2)c2ccc(N3CCCCCC3)nc21 [compound 1037] | 3.4 µM | 
Cn1nc(C(=O)NC2CCN(Cc3cccc(Cl)c3)CC2)c2ccc(N3CCCCCC3)nc21 [compound 1038] | 3.4 µM | 
Cc1ccc(CN2CCC(NC(=O)c3nn(C)c4nc(N5CCCCCC5)ccc34)CC2)cc1 [compound 1039] |  | 2.6 µM
Cn1nc(C(=O)NC2CCN(C3CCCC3)CC2)c2ccc(N3CCCCCC3)nc21 [compound 1040] | 2.8 µM | 
Cn1nc(C(=O)NC2CCN(CCCN3CCCCC3)CC2)c2ccc(N3CCCCCC3)nc21 [compound 1041] | 1.1 µM | 
